Reference: patent publication US11492405B2, “Reducing systemic regulatory t cell levels or activity for treatment of disease and injury of the CNS” (Yeda Research and Development Co. Ltd, priority 2014, dated 2022)
Entries after “also recorded” stand apart in the source; their conditions may differ.

Assays:
5XFAD AD-Tg mice [1] = assay: GFAP immunostaining (hippocampal astrogliosis) in 5XFAD AD-Tg mice; assay type: in vivo, mouse; conditions: AD-Tg/Foxp3-DTR+ mice, 3 weeks after last DTx injection
Description: Tissue processing and immunohistochemistry were performed on paraffin embedded sectioned mouse (6 μm thick) and human (10 μm thick) brains. For human ICAM-1 staining, primary mouse anti-ICAM (1:20 Abcam; ab2213) antibody was used. Slides were incubated for 10 min with 3% H2O2, and a secondary biotin-conjugated anti-mouse antibody was used, followed by biotin/avidin amplification with Vectastain ABC kit (Vector Laboratories). Subsequently, 3,3′-diaminobenzidine (DAB substrate) (Zytomed kit) was applied; slides were dehydrated and mounted with xylene-based mounting solution. For tissue stainings, mice were transcardially perfused with PBS prior to tissue excision and fixation. CP tissues were isolated under a dissecting microscope (Stemi DV4; Zeiss) from the lateral, third, and fourth ventricles of the brain. […] Microscopic analysis, was performed using a fluorescence microscope (E800; Nikon) or laser-scanning confocal microscope (Carl Zeiss, Inc.). The fluorescence microscope was equipped with a digital camera (DXM 1200F; Nikon), and with either a 20×NA 0.50 or 40×NA 0.75 objective lens (Plan Fluor; Nikon). […] For quantification of staining intensity, total cell and background staining was measured using ImageJ software (NIH), and intensity of specific staining was calculated, as previously described (Burgess et al, 2010). […]

5XFAD AD-Tg mice [2] = assay: Flow cytometry of splenocytes in 5XFAD AD-Tg mice; assay type: in vivo, mouse; conditions: weekly-GA, end of 1st week (two GA injections)
Description: Mice were transcardially perfused with PBS, and tissues were treated as previously described (Baruch et al, 2013). Brains were dissected and the different brain regions were removed under a dissecting microscope (Stemi DV4; Zeiss) in PBS, and tissues were dissociated using the gentleMACS™ dissociator (Miltenyi Biotec). Choroid plexus tissues were isolated from the lateral, third and fourth ventricles of the brain, incubated at 37° C. for 45 min in PBS (with Ca^2+/Mg^2+) containing 400 U/ml collagenase type IV (Worthington Biochemical Corporation), and then manually homogenized by pipetting. Spleens were mashed with the plunger of a syringe and treated with ACK (ammonium chloride potassium) lysing buffer to remove erythrocytes. In all cases, samples were stained according to the manufacturers' protocols. All samples were filtered through a 70 μm nylon mesh, and blocked with anti-Fc CD16/32 (1:100; BD Biosciences). For intracellular staining of IFN-γ, the cells were incubated with […] (10 ng/ml; Sigma-Aldrich) and ionomycin (250 ng/ml; Sigma-Aldrich) for 6 h, and Brefeldin-A (10 μg/ml; Sigma-Aldrich) was added for the last 4 h. Intracellular labeling of cytokines was done with BD Cytofix/Cytoperm™ Plus fixation/permeabilization kit (cat. no. 555028). […] Cells were analyzed on an LSRII cytometer (BD Biosciences) using FlowJo software. […]

Row | Substance | hippocampal gliosis (GFAP immunostaining) (5XFAD AD-Tg mice [1]) | splenocyte Foxp3+ Treg levels (5XFAD AD-Tg mice [2])
1 | Diphtheria toxin [DTx] | reduced astrogliosis; also recorded: reduction in hippocampal gliosis | 
2 | Glatiramer acetate [GA] |  | reduced
